# Reference: patent publication US20240067639A1, “SMALL MOLECULES THAT TARGET THE RNA THAT CAUSES ALS” (EXPANSION THERAPEUTICS, INC., priority 2020, published 2024)
# Like-named read-outs stand apart in the source and are kept apart here.
# Experiments:
# [1] = system: RAN translation of (G4C2)66-No ATG-GFP in HEK293T cells; experiment: Cell-based assay of RAN translation inhibition (GFP/mCherry reporter); conditions: Homo sapiens, HEK-293T, read-out: RANT IC50
# [2] = target: Biotin-labeled RNA (target RNA); experiment: BLI affinity measurement (ForteBio Octet RED384); format: binding; conditions: Table G
Compound,"IC50 ([1]; Table G, HEK293T) [µM]",Kd [2] [µM],IC50 [1] [µM]
"Cc1c2ccncc2cc2c3cc(C(=O)N[C@H](C)C(N)=O)ccc3n(C)c12 [Compound 298, (R)—N-(1-amino-1-oxopropan-2-yl)-5,6-dimethyl-6H-pyrido[4,3-b]carbazole-9-carboxamide]",1.4,6.6,
"COC(C)(C)CNC(=O)c1ccc2c(c1)c1cc3cnccc3c(C)c1n2C [Compound 299, N-(2-methoxy-2-methylpropyl)-5,6-dimethyl-6H-pyrido[4,3-b]carbazole-9-carboxamide]",3.8,0.24,
"Cc1c2ccncc2cc2c3cc(C(=O)NC[C@H](C)N(C)C)ccc3n(C)c12 [Compound 300, (S)—N-(2-(dimethylamino)propyl)-5,6-dimethyl-6H-pyrido[4,3-b]carbazole-9-carboxamide]",8.6,0.35,
"COCC(C)(C)NC(=O)c1ccc2c(c1)c1cc3cnccc3c(C)c1n2C [Compound 302, N-(1-methoxy-2-methylpropan-2-yl)-5,6-dimethyl-6H-pyrido[4,3-b]carbazole-9-carb-oxamide]",9.1,8.2,
"Cc1c2ccncc2cc2c3cc(Oc4ccnc(N)c4)ccc3n(C)c12 [Compound 303, 4-((5,6-dimethyl-6H-pyrido[4,3-b]carbazol-9-yl)oxy)pyridin-2-amine]",> 100,0.18,
"Cc1c2ccncc2cc2c3cc(Oc4cccc(N)n4)ccc3n(C)c12 [Compound 304, 6-((5,6-dimethyl-6H-pyrido[4,3-b]carbazol-9-yl)oxy)pyridin-2-amine]",5.9,1.4,
"Cc1c2ccncc2cc2c3cc(Oc4ccncc4)ccc3n(C)c12 [Compound 306, 5,6-dimethyl-9-(pyridin-4-yloxy)-6H-pyrido[4,3-b]carbazole]",14,1.2,
"Cc1c2ccnc(C(=O)NCCN)c2cc2c3cc(F)ccc3n(C)c12 [Compound 308, N-(2-aminoethyl)-9-fluoro-5,6-dimethyl-6H-pyrido[4,3-b]carbazole-1-carboxamide]",> 100,0.56,
"Cc1c2ccnc(C(=O)NCCN)c2cc2c3cc(F)c(F)cc3n(C)c12 [Compound 309, N-(2-aminoethyl)-8,9-difluoro-5,6-dimethyl-6H-pyrido[4,3-b]carbazole-1-carboxamide]",41,1.4,
"Cc1c2ccnc(C(=O)N[C@H](C)CN(C)C)c2cc2c3cc(F)ccc3n(C)c12 [Compound 310, (R)—N-(1-(dimethylamino)propan-2-yl)-9-fluoro-5,6-dimethyl-6H-pyrido[4,3-b]carbazole-1-carboxamide]",38,0.97,
"Cc1c2ccncc2cc2c3cc(Oc4cccnc4)ccc3n(C)c12 [Compound 311, 5,6-dimethyl-9-(pyridin-3-yloxy)-6H-pyrido[4,3-b]carbazole]",,2.3,20
"Cc1c2ccncc2cc2c3ccccc3n(CCN(C)C)c12 [Compound 312, N,N-dimethyl-2-(5-methyl-6H-pyrido[4,3-b]carbazol-6-yl)ethanamine]",,1.3,7.4
"Cc1c2ccnc(C(=O)NCCN(C)C)c2cc2c3cc(F)c(F)cc3n(C)c12 [Compound 313, N-(2-(dimethylamino)ethyl)-8,9-difluoro-5,6-dimethyl-6H-pyrido[4,3-b]carbazole-1-carboxamide]",> 100,4.7,
"Cc1c2ccncc2cc2c3cc(Oc4ccc(N)nc4)ccc3n(C)c12 [Compound 314, 5-((5,6-dimethyl-6H-pyrido[4,3-b]carbazol-9-yl)oxy)pyridine-2-amine]",> 60,3,
"Cc1c2ccnc(C(=O)NCCN(C)C)c2cc2c3cc(F)ccc3n(C)c12 [Compound 315, N-(2-(dimethylamino)ethyl)-9-fluoro-5,6-dimethyl-6H-pyrido[4,3-b]carbazole-1-carboxamide]",> 100,11,
"COc1ccc2c(c1)c1cc3cnccc3c(C)c1n2CCN1CCCCC1 [Compound 316, 9-methoxy-5-methyl-6-(2-(piperidin-1-yl)ethyl)-6H-pyrido[4,3-b]carbazole]",,3.4,10
